Reference: the NIST ThermoML archive (doi:10.1021/je200790q)

Experiments:
[1] = 101.33 kPa, Liquid; for mass density: Vibrating tube method
[2] = molar heat capacity at constant pressure; conditions: 298.15 K; 101.33 kPa; Liquid; Drop calorimetry
[3] = refractive index (Na D-line) (dimensionless); conditions: 101.33 kPa, Liquid, Standard Abbe refractometry

CCn1cc[n+](C)c1.CS(=O)(=O)[O-] [1-ethyl-3-methylimidazolium methanesulfonate]
Conditions	mass density, [1] [kg/m3]	refractive index, [3]	viscosity, [1] [mPa·s]
278.15 K	1257.1	–	805.33
283.15 K	1253.3	–	505.92
288.15 K	1249.5	–	336.04
288.37 K	–	1.49823	–
293.15 K	1245.9	–	232.44
293.28 K	–	1.49682	–
298.15 K	1242.4	–	166.59
298.19 K	–	1.49542	–
303.1 K	–	1.49399	–
303.15 K	1239	–	123.14
308.01 K	–	1.49254	–
308.15 K	1235.6	–	93.48
312.91 K	–	1.49114	–
313.15 K	1232.2	–	72.64
318.15 K	1228.8	–	57.62
323.15 K	1225.5	–	46.54
328.15 K	1222.2	–	38.2
333.15 K	1218.9	–	31.81
338.15 K	1215.6	–	26.84
343.15 K	1212.3	–	22.9
348.15 K	1209.1	–	19.75
353.15 K	1205.9	–	17.19
358.15 K	1202.8	–	15.08
363.15 K	1199.7	–	13.33

Conditions	molar heat capacity at constant pressure [J/K/mol]
[2]	345.52

CCn1cc[n+](C)c1.CO[PH](=O)[O-] [1-ethyl-3-methylimidazolium methyl phosphonate]
Conditions	mass density, [1] [kg/m3]	refractive index, [3]	viscosity, [1] [mPa·s]
278.15 K	1222.2	–	916.06
283.15 K	1218.6	–	598.79
288.15 K	1215.1	–	406.82
288.37 K	–	1.49534	–
293.15 K	1211.7	–	285.8
293.28 K	–	1.4939	–
298.15 K	1208.3	–	206.76
298.19 K	–	1.49249	–
303.1 K	–	1.49115	–
303.15 K	1205	–	153.63
308.01 K	–	1.48982	–
308.15 K	1201.8	–	116.89
312.91 K	–	1.48854	–
313.15 K	1198.6	–	90.83
317.82 K	–	1.48714	–
318.15 K	1195.5	–	71.92
323.15 K	1192.3	–	57.94
328.15 K	1189.2	–	47.38
333.15 K	1186.1	–	39.29
338.15 K	1183	–	32.99
343.15 K	1179.9	–	28.02
348.15 K	1176.9	–	24.05
353.15 K	1173.9	–	20.83
358.15 K	1170.9	–	18.2
363.15 K	1167.9	–	16.03

Conditions	molar heat capacity at constant pressure [J/K/mol]
[2]	354.63

CC(=O)[O-].CCn1cc[n+](C)c1 [1-ethyl-3-methylimidazolium acetate]
Conditions	mass density, [1] [kg/m3]	refractive index, [3]	viscosity, [1] [mPa·s]
278.15 K	1112.4	–	723.62
283.15 K	1108.9	–	451.35
288.15 K	1105.6	–	295.7
288.37 K	–	1.50371	–
293.15 K	1102.4	–	202.29
293.28 K	–	1.50233	–
298.15 K	1099.3	–	143.61
298.19 K	–	1.50091	–
303.1 K	–	1.49949	–
303.15 K	1096.2	–	105.3
308.01 K	–	1.49807	–
308.15 K	1093.6	–	79.32
312.91 K	–	1.49666	–
313.15 K	1090	–	61.33
318.15 K	1087	–	48.41
323.15 K	1084	–	38.95
328.15 K	1081	–	31.87
333.15 K	1078	–	26.47
338.15 K	1075	–	22.27
343.15 K	1072.1	–	18.96
348.15 K	1069.2	–	16.31
353.15 K	1066.3	–	14.16
358.15 K	1063.4	–	12.41
363.15 K	1060.6	–	10.95

Conditions	molar heat capacity at constant pressure [J/K/mol]
[2]	321.9

CCn1cc[n+](C)c1.Cc1ccc(S(=O)(=O)[O-])cc1 [1-ethyl-3-methylimidazolium 4-methylbenzenesulfonate]
Conditions	mass density, [1] [kg/m3]	refractive index, [3]	viscosity, [1] [mPa·s]
303.15 K	1223.4	–	1417.4
308.15 K	1220	–	842.45
313.15 K	1216.6	–	531.73
318.15 K	1213.2	–	351.97
322.73 K	–	1.53844	–
323.15 K	1210	–	242.85
325.68 K	–	1.53757	–
327.64 K	–	1.53703	–
328.15 K	1206.8	–	173.69
329.61 K	–	1.53649	–
332.55 K	–	1.5357	–
333.15 K	1203.7	–	128.18
334.52 K	–	1.53509	–
336.48 K	–	1.53461	–
338.15 K	1200.6	–	97.21
338.44 K	–	1.53409	–
340.41 K	–	1.53356	–
342.37 K	–	1.53304	–
343.15 K	1197.6	–	75.51
348.15 K	1194.5	–	59.9
353.15 K	1191.5	–	48.42
358.15 K	1188.5	–	39.81
363.15 K	1185.5	–	33.22

CCn1cc[n+](C)c1.N#CN=C=[N-] [1-ethyl-3-methylimidazolium dicyanamide]
Conditions	mass density, [1] [kg/m3]	refractive index, [3]	viscosity, [1] [mPa·s]
278.15 K	1117.9	–	32.51
283.15 K	1114.3	–	26.67
288.15 K	1110.9	–	22.23
288.37 K	–	1.51745	–
293.15 K	1107.4	–	18.79
293.28 K	–	1.51585	–
298.15 K	1104	–	16.09
298.19 K	–	1.51428	–
303.1 K	–	1.51269	–
303.15 K	1100.6	–	13.92
308.01 K	–	1.51112	–
308.15 K	1097.3	–	12.16
312.91 K	–	1.50956	–
313.15 K	1094	–	10.72
318.15 K	1090.7	–	9.519
323.15 K	1087.4	–	8.518
328.15 K	1084.2	–	7.673
333.15 K	1081	–	6.951
338.15 K	1077.8	–	6.327
343.15 K	1074.7	–	5.788
348.15 K	1071.6	–	5.319
353.15 K	1068.5	–	4.909
358.15 K	1065.4	–	4.548
363.15 K	1062.3	–	4.229

Conditions	molar heat capacity at constant pressure [J/K/mol]
[2]	314.63

CCn1cc[n+](C)c1.COP(=O)([O-])OC [1-ethyl-3-methylimidazolium dimethylphosphate]
Conditions	mass density, [1] [kg/m3]	refractive index, [3]	viscosity, [1] [mPa·s]
298.19 K	–	1.48175	–
303.1 K	–	1.4805	–
303.15 K	1213.9	–	192.68
308.01 K	–	1.47909	–
308.15 K	1210.5	–	144.32
312.91 K	–	1.47771	–
313.15 K	1207.1	–	110.51
317.82 K	–	1.47636	–
318.15 K	1203.8	–	86.32
322.73 K	–	1.47511	–
323.15 K	1200.5	–	68.64
327.64 K	–	1.47384	–
328.15 K	1197.2	–	55.46
333.15 K	1193.9	–	45.47
338.15 K	1190.6	–	37.78
343.15 K	1187.4	–	31.76
348.15 K	1184.2	–	26.99
353.15 K	1181	–	23.17
358.15 K	1177.8	–	20.07
363.15 K	1174.7	–	17.53

Conditions	molar heat capacity at constant pressure [J/K/mol]
[2]	411.78

CCn1cc[n+](C)c1.N#C[S-] [1-ethyl-3-methylimidazolium thiocyanate]
Conditions	mass density, [1] [kg/m3]	refractive index, [3]	viscosity, [1] [mPa·s]
278.15 K	1129.7	–	54.57
283.15 K	1126.5	–	43.51
288.15 K	1123.3	–	35.36
293.15 K	1120.1	–	29.21
298.15 K	1117	–	24.5
303.15 K	1113.9	–	20.79
308.15 K	1110.8	–	17.86
313.15 K	1107.8	–	15.49
318.15 K	1104.8	–	13.56
323.15 K	1101.8	–	11.97
328.15 K	1098.8	–	10.64
332.55 K	–	1.53909	–
333.15 K	1095.9	–	9.528
334.52 K	–	1.5385	–
336.48 K	–	1.53794	–
338.15 K	1093	–	8.582
338.44 K	–	1.53739	–
340.41 K	–	1.53682	–
342.37 K	–	1.53636	–
343.15 K	1090.1	–	7.773
348.15 K	1087.2	–	7.076
353.15 K	1084.3	–	6.472
358.15 K	1081.5	–	5.945
363.15 K	1078.7	–	5.485

Conditions	molar heat capacity at constant pressure [J/K/mol]
[2]	281.45

CCn1cc[n+](C)c1.O=S(=O)([O-])C(F)(F)F [1-ethyl-3-methylimidazolium trifluoromethanesulfonate]
Conditions	mass density, [1] [kg/m3]	refractive index, [3]	viscosity, [1] [mPa·s]
278.15 K	1403.3	–	99.83
283.15 K	1398.9	–	78.93
288.15 K	1394.5	–	63.51
288.37 K	–	1.43572	–
293.15 K	1390.2	–	51.87
293.28 K	–	1.43432	–
298.15 K	1385.9	–	42.94
298.19 K	–	1.43296	–
303.1 K	–	1.43159	–
303.15 K	1381.6	–	35.98
308.01 K	–	1.43025	–
308.15 K	1377.3	–	30.48
312.91 K	–	1.42886	–
313.15 K	1373.1	–	26.09
318.15 K	1368.9	–	22.53
323.15 K	1364.8	–	19.62
328.15 K	1360.6	–	17.21
333.15 K	1356.5	–	15.21
338.15 K	1352.5	–	13.52
343.15 K	1348.4	–	12.1
348.15 K	1344.4	–	10.88
353.15 K	1340.4	–	9.845
358.15 K	1336.4	–	8.948
363.15 K	1332.5	–	8.169

Conditions	molar heat capacity at constant pressure [J/K/mol]
[2]	362.8
